BindingDB's records for doi:10.1016/j.bmc.2015.01.038 (Technical University of Denmark, 2015)

test: Antagonist activity at lasB in Pseudomonas aeruginosa harboring lasB-gfp gene assessed as inhibition of […]-induced quorum sensing by green fluorescence protein reporter assay

O=C(Cn1cc(C2CCCCC2)nn1)N[C@H]1CCOC1=O and O=C(Cn1cc(C2CCCC2)nn1)N[C@H]1CCOC1=O are within 1.5-fold of each other in IC50: 889 µM for the first, 610 µM for the second.

Going from CCCc1cn(CC(=O)N[C@H]2CCOC2=O)nn1 to CCCCCCc1cn(CC(=O)N[C@H]2CCOC2=O)nn1, the IC50 falls from 678 µM to 425 µM (1.6-fold).

O=C(Cn1cc(CSc2ccccc2)nn1)N[C@H]1CCOC1=O and O=C(Cn1cc(-c2ccsc2)nn1)N[C@H]1CCOC1=O are within 1.5-fold of each other in IC50: 692 µM for the first, 582 µM for the second.

First: [N-]=[N+]=Nc1ccc(C(=O)N[C@H]2CCOC2=O)cc1
Second: O=Cc1cccc(-n2cc(CCC(=O)N[C@H]3CCOC3=O)nn2)c1
The IC50 of the first is 2.9-fold higher: 1100 µM for the first, 381 µM for the second. The second is the more potent here.

In the case of O=C(Cn1cc(C2CC2)nn1)N[C@H]1CCOC1=O, the IC50 is reported as 499 µM.
